# Tested on: Aβ42 secretion
# Assay: Cellular γ-secretase assay (inhibition of Aβ42 secretion)
# Type: cell-based
# Conditions: Homo sapiens, 22 h, human neuroglioma H4 cells overexpressing human APP, 22 hours incubation
# Protocol: Cellular γ-Secretase Assay
# The compounds were investigated in accordance with the test given hereinafter.
# Human neuroglioma H4 cells overexpressing human APP were plated at 30,000 cells/well/200 μL in 96-well plates in IMDM media containing 10% FCS, […] Hygromycin B and incubated for 2 hours at 37° C., 5% CO2 prior to adding test compounds.
# Compounds for testing were dissolved in 100% Me2SO yielding in a 10 mM stock solution. Typically 12 μL of these solutions were further diluted in 1000 μL of IMDM media (w/o FCS). Subsequent 1:1 dilutions gave a ten point dose response curve. 100 μL of each dilution was added to the cells in 96-well plates. Appropriate controls using vehicle only and reference compound were applied to this assay. The final concentration of Me2SO was 0.4%.
# After incubation for 22 hours at 37° C., 5% CO2, 50 μL supernatant was transferred into round-bottom 96-well polypropylene plates for detection of Aβ42. 50 μL assay buffer (50 mM Tris/Cl, pH 7.4, 60 mM NaCl, 0.5% BSA, 1% TWEEN 20) was added to the wells followed by the addition of 100 μL of detection antibody (ruthenylated BAP15 0.0625 μg/mL in assay buffer). 50 μL of a premix of capture antibody (biotinylated 6E10 antibody, 1 μg/mL) and Streptavidin-coated magnetic beads (Dynal M-280, 0.125 mg/mL) were preincubated for 1 hour at room temperature before adding the assay plates. Assay plates were incubated on a shaker for 3 hours at room temperature and finally read in the Bioveris M8 Analyser according to the manufacturer's instructions (Bioveris).
# IC50 values for inhibition of Aβ42 secretion were calculated by nonlinear regression fit analysis using XLfit 4.0 software (IDBS).
row,Compound,EC50 [nM]
1,"Cc1cccc(NC(=O)c2cc3cc(C4CCCN(C(C)C)C4)ccc3[nH]2)c1 (centres unmarked) [Example 33, 5-(1-Isopropyl-piperidin-3-yl)-1H-indole-2-carboxylic acid m-tolylamide]",1580
2,"C=CCCN1CCC(c2ccc3[nH]c(C(=O)Nc4cncc(F)c4)cc3c2)C1 (centres unmarked) [Example 78, 5-(1-(But-3-enyl)pyrrolidin-3-yl)-N-(5-fluoropyridin-3-yl)-1H-indole-2-carboxamide]",927
3,"CCCN1CCC(c2ccc3[nH]c(C(=O)Nc4ccc(F)cc4)cc3c2)CC1 [Example 40, 5-[1-Propyl-piperidin-4-yl]-1H-indole-2-carboxylic acid (4-fluoro-phenyl)-amide]",1700
4,"CC(C)N1CC=C(c2ccc3[nH]c(C(=O)Nc4cc(F)cc(F)c4)cc3c2)CC1 [Example 87, 5-(1-Isopropyl-1,2,3,6-tetrahydro-pyridin-4-yl)-1H-indole-2-carboxylic acid (3,5-difluoro-phenyl)-amide]",1300
5,"CC(C)C(=O)N1CCC(c2ccc3[nH]c(C(=O)Nc4cc(F)cc(F)c4)cc3c2)C1 (centres unmarked) [Example 13, 5-(1-Isobutyryl-pyrrolidin-3-yl)-1H-indole-2-carboxylic acid (3,5-difluoro-phenyl)-amide]",713
6,"O=C(Nc1cncc(F)c1)c1cc2cc(C3CCN(CC4CC4)C3)ccc2[nH]1 (centres unmarked) [Example 79, 5-(1-(Cyclopropylmethyl)pyrrolidin-3-yl)-N-(5-fluoropyridin-3-yl)-1H-indole-2-carboxamide]",981
7,"CC(c1ccc2[nH]c(C(=O)Nc3cc(F)cc(F)c3)cc2c1)N1CCCC1=O (centres unmarked) [Example 88, 5-[1-(2-Oxo-pyrrolidin-1-yl)-ethyl]-1H-indole-2-carboxylic acid (3,5-difluoro-phenyl)-amide]",321
8,"O=C(Nc1ccc(F)c(F)c1)c1cc2cc(C3=COCCC3)ccc2[nH]1 [Example 85, 5-(5,6-Dihydro-4H-pyran-3-yl)-1H-indole-2-carboxylic acid (3,4-difluoro-phenyl)-amide]",445
9,"CC(C)N1CCC(c2ccc3[nH]c(C(=O)Nc4cccc(C(F)(F)F)c4)cc3c2)CC1 [Example 22, 5-(1-Isopropyl-piperidin-4-yl)-1H-indole-2-carboxylic acid (3-trifluoromethyl-phenyl)-amide]",2270
10,"CC(C)C(=O)N1CCCC(c2ccc3[nH]c(C(=O)Nc4cc(F)cc(F)c4)cc3c2)C1 (centres unmarked) [Example 51, 5-(1-Isobutyryl-piperidin-3-yl)-1H-indole-2-carboxylic acid (3,5-difluoro-phenyl)-amide]",263
11,"O=C(Nc1ccc(F)cc1)c1cc2cc(C3CCN(Cc4ccccc4)CC3)ccc2[nH]1 [Example 38, 5-(1-Benzyl-piperidin-4-yl)-1H-indole-2-carboxylic acid (4-fluoro-phenyl)-amide]",1290
12,"O=C(Nc1cc(F)cc(F)c1)c1cc2cc(C3CCCNC3)ccc2[nH]1 (centres unmarked) [Example 62, 5-Piperidin-3-yl-1H-indole-2-carboxylic acid (3,5-difluoro-phenyl)-amide]",354
13,"O=C(Nc1cccc(F)c1)c1cc2cc([C@H]3CCCN(CCO)C3)ccc2[nH]1 [Example 114, (R)—N-(3-Fluorophenyl)-5-(1-(2-hydroxyethyl)piperidin-3-yl)-1H-indole-2-carboxamide]",273
14,"N#Cc1ccc(N2CCC(c3ccc4[nH]c(C(=O)Nc5cncc(F)c5)cc4c3)C2)nn1 (centres unmarked) [Example 83, 5-(1-(6-Cyanopyridazin-3-yl)pyrrolidin-3-yl)-N-(5-fluoropyridin-3-yl)-1H-indole-2-carboxamide]",3340
15,"C=C(CCN1CCCCC1)c1ccc2[nH]c(C(=O)Nc3cc(F)cc(F)c3)cc2c1 [Example 97, N-(3,5-Difluorophenyl)-5-(4-(piperidin-1-yl)but-1-en-2-yl)-1H-indole-2-carboxamide]",1260

# Continued, values first:
row,EC50 [nM],Compound
1,2470,"COC(=O)CN1CCC(c2ccc3[nH]c(C(=O)Nc4ccc(F)cc4)cc3c2)CC1 [Example 43, {4-[2-(4-Fluoro-phenylcarbamoyl)-1H-indol-5-yl]-piperidin-1-yl}-acetic acid methyl ester]"
2,116,"CC(C)N1CCC[C@H](c2ccc3[nH]c(C(=O)Nc4cccc(F)c4)cc3c2)C1 [Example 110, 5-((R)-1-Isopropyl-piperidin-3-yl)-1H-indole-2-carboxylic acid (3-fluoro-phenyl)-amide]"
3,777,"O=C(Nc1cccc(F)c1)c1cc2cc(C3CCCN(CC4CCCO4)C3)ccc2[nH]1 (centres unmarked) [Example 68, N-(3-Fluorophenyl)-5-(1-((tetrahydrofuran-2-yl)methyl)piperidin-3-yl)-1H-indole-2-carboxamide]"
4,742,"CC(C)N1CCCC(c2ccc3[nH]c(C(=O)Nc4cc(F)cc(Cl)c4)cc3c2)C1 (centres unmarked) [Example 30, N-(3-Chloro-5-fluorophenyl)-5-(1-isopropylpiperidin-3-yl)-1H-indole-2-carboxamide]"
5,4380,"CCC(=O)N1CCC(c2ccc3[nH]c(C(=O)Nc4ccc(F)cc4)cc3c2)CC1 [Example 44, 5-(1-Propionyl-piperidin-4-yl)-1H-indole-2-carboxylic acid (4-fluoro-phenyl)-amide]"
6,1340,"CC(c1ccc2[nH]c(C(=O)Nc3cc(F)cc(F)c3)cc2c1)C1CCN(CC#N)C1 (centres unmarked) [Example 94, 5-(1-(1-(Cyanomethyl)pyrrolidin-3-yl)ethyl)-N-(3,5-difluorophenyl)-1H-indole-2-carboxamide]"
7,177,"CC(C)N1CCCC(c2ccc3[nH]c(C(=O)Nc4cc(F)cc(F)c4)cc3c2)C1 (centres unmarked) [Example 21, 5-(1-Isopropyl-piperidin-3-yl)-1H-indole-2-carboxylic acid (3,5-difluoro-phenyl)-amide]"
8,897,"CC(C)N1CCC(c2ccc3[nH]c(C(=O)Nc4cccc(Cl)c4)cc3c2)CC1 [Example 23, 5-(1-Isopropyl-piperidin-4-yl)-1H-indole-2-carboxylic acid (3-chloro-phenyl)-amide]"
9,795,"O=C(Nc1cc(F)cc(F)c1)c1cc2cc(C3CCN(Cc4ccccc4)C3)ccc2[nH]1 (centres unmarked) [Example 1, 5-(1-Benzylpyrrolidin-3-yl)-N-(3,5-difluorophenyl)-1H-indole-2-carboxamide]"
10,3830,"O=C(Nc1cc(F)cc(F)c1)c1cc2cc(/C=C/N3C(=O)[C@@H]4CC[C@H]3C4)ccc2[nH]1 [Example 101, 5-[(E)-2-((1S,4R)-3-Oxo-2-aza-bicyclo[2.2.1]hept-2-yl)-vinyl]-1H-indole-2-carboxylic acid (3,5-difluoro-phenyl)-amide]"
11,392,"O=C(Nc1cc(F)cc(F)c1)c1cc2cc(C3CCCN(S(=O)(=O)c4ccccc4)C3)ccc2[nH]1 (centres unmarked) [Example 53, 5-(1-Benzenesulfonyl-piperidin-3-yl)-1H-indole-2-carboxylic acid (3,5-difluoro-phenyl)-amide]"
12,273,"CC(=O)N1CCCC(c2ccc3[nH]c(C(=O)Nc4cc(F)cc(F)c4)cc3c2)C1 (centres unmarked) [Example 52, 5-(1-Acetyl-piperidin-3-yl)-1H-indole-2-carboxylic acid (3,5-difluoro-phenyl)-amide]"
13,402,"CN1CCC(c2ccc3[nH]c(C(=O)Nc4cccc(F)c4)cc3c2)C1 (centres unmarked) [Example 4, N-(3-Fluorophenyl)-5-(1-methylpyrrolidin-3-yl)-1H-indole-2-carboxamide]"
14,588,"CC(C)N1CCCC(c2ccc3[nH]c(C(=O)Nc4cccc(F)c4)cc3c2)C1 (centres unmarked) [Example 46, 5-(1-Isopropyl-piperidin-3-yl)-1H-indole-2-carboxylic acid (3-fluoro-phenyl)-amide]"
